Source: the supplement of paper PMC10307832

Legend:
Assay in all cases: relative viability (nuclei count vs DMSO), 5 days (fraction); higher = more cells survive
[1] = system: PC-14
Method in brief: (§1)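 Lung cancer cell lines in 1536-well plates were dosed by pin tool the day after seeding, either with one drug alone or with a fixed anchor-drug dose plus five library-drug doses (not always all listed) in √10 steps. After 5 days, cells were fixed and their nuclei stained in one step (final 0.05% Triton X-100, 1% formaldehyde, 1 ug/ml Hoechst), then counted on 4× images. Relative viability is the nuclei count in treated wells divided by that in vehicle wells. Values are medians of duplicate plates.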

[2] = system: HCC-366
Method in brief: as §1

[3] = system: NCI-H2228
Method in brief: as §1

[4] = system: UMC-11
Method in brief: as §1

[5] = system: H3255
Method in brief: as §1

[6] = system: ABC-1
Method in brief: as §1

[7] = system: NCI-H2085
Method in brief: as §1

[8] = system: LCLC-103H
Method in brief: as §1

[9] = system: COR-L23
Method in brief: as §1

[10] = system: NCI-H23
Method in brief: as §1

[11] = system: NCI-H661
Method in brief: as §1

[12] = system: NCI-H1666
Method in brief: as §1

[13] = system: NCI-H1975
Method in brief: as §1

[14] = system: LXF-289
Method in brief: as §1

[15] = system: NCI-H2009
Method in brief: as §1

[16] = system: SK-MES-1
Method in brief: as §1

[17] = system: HCC-15
Method in brief: as §1

[18] = system: NCI-H1437
Method in brief: as §1

[19] = system: HCC-827
Method in brief: as §1

[20] = system: NCI-H2342
Method in brief: as §1

[21] = system: PC-3 [JPC-3]
Method in brief: as §1

[22] = system: LC-2-ad
Method in brief: as §1

[23] = system: NCI-H2087
Method in brief: as §1

For CN1CCN(CCOc2cc(OC3CCOCC3)c3c(Nc4c(Cl)ccc5c4OCO5)ncnc3c2)CC1 [Saracatinib] + Cc1cc(Nc2cc(N3CCN(C)CC3)nc(Sc3ccc(NC(=O)C4CC4)cc3)n2)n[nH]1 [Tozasertib] (partner 0.1 µM), the relative viability ([1]; first compound 0.02 µM) was 0.603, the relative viability ([1]; first compound 0.2 µM) was 0.514 and the relative viability ([1]; first compound 0.6325 µM) was 0.475. For the same compound, the relative viability ([1]; first compound 2 µM) was 0.209, the relative viability ([2]; first compound 0.02 µM) was 0.117 and the relative viability ([2]; first compound 0.6325 µM) was 0.074. For the same compound, the relative viability ([2]; first compound 2 µM) was 0.0412, the relative viability ([3]; first compound 0.02 µM) was 0.222 and the relative viability ([3]; first compound 0.2 µM) was 0.148. The relative viability ([3]; first compound 0.6325 µM) was 0.213, the relative viability ([3]; first compound 2 µM) was 0.154 and the relative viability ([4]; first compound 0.02 µM) was 0.206. It also gave a relative viability ([4]; first compound 0.2 µM) of 0.175, a relative viability ([4]; first compound 0.6325 µM) of 0.213 and a relative viability ([4]; first compound 2 µM) of 0.185. For the same compound, the relative viability ([5]; first compound 0.02 µM) was 0.621, the relative viability ([5]; first compound 0.2 µM) was 0.585 and the relative viability ([5]; first compound 0.6325 µM) was 0.444. The relative viability ([5]; first compound 2 µM) was 0.291, the relative viability ([6]; first compound 0.02 µM) was 0.157 and the relative viability ([6]; first compound 0.2 µM) was 0.164. For the same compound, the relative viability ([6]; first compound 0.6325 µM) was 0.169, the relative viability ([6]; first compound 2 µM) was 0.14 and the relative viability ([7]; first compound 0.02 µM) was 0.816. It also gave a relative viability ([7]; first compound 0.2 µM) of 0.676, a relative viability ([7]; first compound 0.6325 µM) of 0.722 and a relative viability ([7]; first compound 2 µM) of 0.707. The relative viability ([8]; first compound 0.02 µM) was 0.46, the relative viability ([8]; first compound 0.2 µM) was 0.465 and the relative viability ([8]; first compound 0.6325 µM) was 0.465. For the same compound, the relative viability ([8]; first compound 2 µM) was 0.454, the relative viability ([9]; first compound 0.02 µM) was 0.185 and the relative viability ([9]; first compound 0.2 µM) was 0.207. The relative viability ([9]; first compound 0.6325 µM) was 0.155, the relative viability ([9]; first compound 2 µM) was 0.174 and the relative viability ([10]; first compound 0.02 µM) was 0.743. For the same compound, the relative viability ([10]; first compound 0.2 µM) was 0.345, the relative viability ([10]; first compound 0.6325 µM) was 0.426 and the relative viability ([10]; first compound 2 µM) was 0.327. The relative viability ([11]; first compound 0.02 µM) was 0.36, the relative viability ([11]; first compound 0.2 µM) was 0.308 and the relative viability ([11]; first compound 0.6325 µM) was 0.342. It also gave a relative viability ([11]; first compound 2 µM) of 0.328, a relative viability ([12]; first compound 0.02 µM) of 0.648 and a relative viability ([12]; first compound 0.2 µM) of 0.607. For the same compound, the relative viability ([12]; first compound 0.6325 µM) was 0.66, the relative viability ([12]; first compound 2 µM) was 0.625 and the relative viability ([13]; first compound 0.02 µM) was 0.697. The relative viability ([13]; first compound 0.2 µM) was 0.709, the relative viability ([13]; first compound 0.6325 µM) was 0.675 and the relative viability ([13]; first compound 2 µM) was 0.33. For the same compound, the relative viability ([14]; first compound 0.02 µM) was 0.205, the relative viability ([14]; first compound 0.2 µM) was 0.183 and the relative viability ([14]; first compound 0.6325 µM) was 0.164. The relative viability ([14]; first compound 2 µM) was 0.0819, the relative viability ([15]; first compound 0.02 µM) was 0.655 and the relative viability ([15]; first compound 0.2 µM) was 0.715. For the same compound, the relative viability ([15]; first compound 0.6325 µM) was 0.5, the relative viability ([15]; first compound 2 µM) was 0.609 and the relative viability ([16]; first compound 0.02 µM) was 0.868. For the same compound, the relative viability ([16]; first compound 0.2 µM) was 0.836, the relative viability ([16]; first compound 0.6325 µM) was 0.872 and the relative viability ([16]; first compound 2 µM) was 0.666. For the same compound, the relative viability ([17]; first compound 0.02 µM) was 0.403, the relative viability ([17]; first compound 0.2 µM) was 0.372 and the relative viability ([17]; first compound 0.6325 µM) was 0.365. For the same compound, the relative viability ([17]; first compound 2 µM) was 0.24, the relative viability ([18]; first compound 0.02 µM) was 0.431 and the relative viability ([18]; first compound 0.2 µM) was 0.31. For the same compound, the relative viability ([18]; first compound 0.6325 µM) was 0.407, the relative viability ([18]; first compound 2 µM) was 0.344 and the relative viability ([19]; first compound 0.02 µM) was 0.404. For the same compound, the relative viability ([19]; first compound 0.2 µM) was 0.311, the relative viability ([19]; first compound 0.6325 µM) was 0.171 and the relative viability ([19]; first compound 2 µM) was 0.11. The relative viability ([20]; first compound 0.02 µM) was 0.499, the relative viability ([20]; first compound 0.2 µM) was 0.608 and the relative viability ([20]; first compound 0.6325 µM) was 0.473. The relative viability ([20]; first compound 2 µM) was 0.496, the relative viability ([21]; first compound 0.02 µM) was 0.933 and the relative viability ([21]; first compound 0.2 µM) was 0.824. The relative viability ([21]; first compound 0.6325 µM) was 0.834, the relative viability ([21]; first compound 2 µM) was 0.469 and the relative viability ([22]; first compound 0.02 µM) was 0.39. It also gave a relative viability ([22]; first compound 0.2 µM) of 0.427, a relative viability ([22]; first compound 0.6325 µM) of 0.464 and a relative viability ([22]; first compound 2 µM) of 0.408. The relative viability ([23]; first compound 0.02 µM) was 0.224, the relative viability ([23]; first compound 0.2 µM) was 0.206 and the relative viability ([23]; first compound 0.6325 µM) was 0.258. It also gave a relative viability ([23]; first compound 2 µM) of 0.231.
